What was measured:
Type in all cases: in vivo
rats [1] = experiment: Startle and pre-pulse inhibition
Description: As previously reported ([Marti et al., 2019]), rats were tested for acoustic startle reactivity in startle chambers (Ugo Basile apparatus, Milan, Italy) consisting of a sound-attenuated, lighted, and ventilated enclosure holding a transparent non-restrictive Perspex® cage (modified version for rats 200 × 90 × 80 mm). A loudspeaker mounted laterally by the holder produced all acoustic stimuli. Peaks and amplitudes of the startle response were detected by a load cell. At the onset of the startling stimulus, 300 ms readings were recorded, and the wave amplitude evoked by the movement of the rat startle response was measured. Acoustic startle test sessions consisted of startle trials (pulse-alone) and pre-pulse trials (pre-pulse + pulse). The pulse-alone trial consisted of a 40 ms 120 dB pulse. Pre-pulse + pulse trial sequences consisted of a 20 ms acoustic pre-pulse, 80 ms delay, and then a 40 ms, 120 dB startle pulse (100 ms onset–onset). There was an average of 15 s (range = from 9 to 21 s) between the trials. Each startle session began with a 10 min acclimation period with a 65 dB broadband white noise that was present continuously throughout the session. The test session contained 40 trials composed by pulse-alone and pre-pulse + pulse trials (with three different pre-pulses of 68, 75, and 85 dB) presented in a pseudorandomized order. Rats were placed in the startle chambers 5 min after treatment with AKB48. The entire startle/PPI test lasted 20 min. The pre-pulse inhibition (PPI) was expressed as the percentage decrease in the amplitude of the startle reactivity caused by the presentation of the pre-pulse. AKB48 (0.1–3 mg/kg i.p.) was administered intraperitoneally, and startle/PPI responses were recorded 15 min (including the 10 min acclimation period) after drug injections.

rats [2] = experiment: Overall tactile response (vibrissae, pinna, corneal reflexes)
Description: Tactile responses were verified through vibrissae, pinna, and corneal reflexes ([Marti et al., 2019]), and data were expressed as the sum of these parameters. The vibrissae reflex was evaluated by touching the vibrissae (right and left) with a thin hypodermic needle once per side, giving a value of 1 if there was a reflex (turning of the head to the side of touch or vibrissae movement) or 0 if not present (overall score 2). Evaluation of the vibrissae reflex was measured at 0, 10, 30, 60, 120, and 180 min post-injection. The pinna reflex was assessed by touching the pavilions (left and right) with a thin hypodermic needle, the interior pavilions first. This test was repeated twice per side, giving a value of 1 if there was a reflex and 0 if not present (overall score 4). Evaluation of the pinna reflex was measured at 0, 10, 30, 60, 120, and 180 min post-injection. The corneal reflex was assessed by gently touching the cornea with a thin hypodermic needle and evaluating the response, assigning a value of 1 if the rat moved only its head, 2 if it only closed its eyelid, and 3 if it closed its lid and moved its head. The procedure was conducted bilaterally (overall score 6) and was measured at 0, 10, 30, 60, 120, and 180 min post-injection.

rats [3] = experiment: Bar test (catalepsy)
Description: In the bar test, the rat’s forelimbs were placed on a bar made of plastic (height 6 cm). The time spent on the bar was measured (immobility cut-off: 20 sec), and akinesia was calculated as the total time spent on the bar after three consecutive trials (total maximal time of catalepsy: 60 s; [De Luca et al., 2015]; [Canazza et al., 2016]). The bar test was performed at 0, 20, 40, 70, 140, and 195 min post-injection.

rats [4] = experiment: Visual placing response test
From the text: Visual response was verified by two behavioral tests that evaluated the ability of the rat to capture visual information even when stationary (the visual object response) or when moving (the visual placing response). The visual object response test was used to evaluate the ability of the rat to see an object approaching from the front or the side, inducing the animal to shift or turn its head or to retreat (modified from [Ossato et al., 2015]; [Marti et al., 2019]). For the frontal visual response, a white horizontal bar was moved frontally to the rat’s head; the maneuver was repeated three times. For the lateral visual response, a small dentist’s mirror was moved into the rat’s field of view in a horizontal arc until the stimulus was between the rat’s eyes. The procedure was conducted bilaterally and was repeated three times. The score assigned was a value of 1 if there was a reflection in the rat movement or 0 if not. The total value was calculated by adding the scores obtained in the frontal with that obtained in the lateral visual object response (overall score 9). Evaluation of the visual object response was measured at 0, 10, 30, 60, 120, and 180 min post-injection. The visual placing response test was performed using a tail suspension-modified apparatus able to bring the rat toward the floor at a constant speed of 10 cm/sec (modified from [Ossato et al., 2015]; [Marti et al., 2019]). The downward movement of the rat was videotaped. Frame-by-frame analysis allowed us to evaluate the beginning of the reaction of the rat while it was close to the floor. When the rat started the reaction, an electronic ruler evaluated the perpendicular distance in millimeters between the eyes of the rat to the floor. The naïve rats perceived the floor and prepared for contact at a distance of about 27 ± 4.5 mm. Evaluation of the visual placing response was measured at 0, 15, 35, 65, 125, and 190 min post-injection.

[5] = AKB48 0.1–3 mg/kg i.p., 15 min after treatment
[6] = AM251 1 mg/kg i.p. before AKB48 3 mg/kg

SMILES	PPI at 68 dB of pre-pulse intensity (rats [1]; [5])	PPI at 75 dB of pre-pulse intensity (rats [1]; [5])	inhibition at 3 mg/kg (rats [1]; Rattus norvegicus, 0.25 h, AKB48 3 mg/kg, 15 min after administration, read-out: inhibition of startle amplitude) [%]	reduction of overall tactile response (rats [2]; AKB48, only at the highest dose (3 mg/kg i.p.)) [%]	persistence of the reduction of tactile response (rats [2]; AKB48 highest dose (3 mg/kg i.p.))	time spent on the bar (rats [3]; AKB48 0.1–3 mg/kg i.p.)	persistence of the reduction of visual placing response (rats [4]; AKB48 3 mg/kg i.p.)	visual placing response (rats [4]; AKB48 0.1–3 mg/kg i.p., 190 min observation)	inhibitory effect of AKB48 on PPI at 68 dB, with AM251 (rats [1]; AM251 1 mg/kg i.p. + AKB48)	inhibitory effect of AKB48 on PPI at 75 dB, with AM251 (rats [1]; AM251 1 mg/kg i.p. + AKB48)	inhibitory effect of AKB48 on startle, with AM251 (rats [1]; AM251 1 mg/kg i.p. + AKB48)	startle response, AM251 alone (rats [1]; AM251 1 mg/kg i.p. alone)	response to AM251 alone in the tactile response section (rats [2]; AM251 1 mg/kg i.p. alone (data not shown))	inhibition of overall tactile response induced by AKB48, after AM251 pre-treatment (rats [2]; AM251 1 mg/kg i.p. before AKB48 3 mg/kg i.p.)	catalepsy, AM251 alone (rats [3]; AM251 1 mg/kg i.p. alone)	AKB48 effect on time spent on the bar, after AM251 pre-treatment (rats [3]; [6])	visual placing response, AM251 alone (rats [4]; AM251 1 mg/kg i.p. alone)	visual impairment (placing) induced by AKB48, after AM251 pre-treatment (rats [4]; [6])
CCCCCn1nc(C(=O)NC23CC4CC(CC(C4)C2)C3)c2ccccc21 [AKB48, N-(1-adamantyl)-1-pentyl-1H-indazole-3-carboxamide]	inhibited	inhibited	~50	~23	up to 60 min	slightly increased	up to 190 min	reduced	–	–	–	–	–	–	–	–	–	–
Cc1c(C(=O)NN2CCCCC2)nn(-c2ccc(Cl)cc2Cl)c1-c1ccc(I)cc1 [AM251, 1-(2,4-dichlorophenyl)-5-(4-iodophenyl)-4-methyl-N-(piperidin-1-yl)-1H-pyrazole-3-carboxamide, reference compound]	–	–	–	–	–	–	–	–	prevented	prevented	prevented	did not modify	did not alter	prevented	did not induce catalepsy	prevented	did not alter	prevented
